Assay results: paper PMC6271890, “Synthesis and Antiproliferative Activity of Some Novel Triazole Derivatives from Dehydroabietic Acid” (Molecules, 2014)

Legend:
[1] = tested on: gastric epithelial adenocarcinoma (AGS) cells; assay: Antiproliferative assay (MTT reduction), AGS cells; assay type: cell-based, human; set-up: key to antiproliferative activity in words, AGS: IC50 values > 100 µM were considered inactive; settings: for IC50: Homo sapiens, 72 h, AGS gastric adenocarcinoma cells, 3 days treatment, MTT, mean ± SD
Description: (§1) All human cell lines used in this work were purchased from the American Type Culture Collection (ATCC, Manasas, VA, USA). Normal lung MRC-5 fibroblasts (CCL-171), SK-MES-1 lung cancer cells (HTB-58) and J82 bladder carcinoma cells (HTB-1) were grown as monolayers in minimum essential Eagle medium (MEM) with Earles’s salts, 2 mM L-glutamine and 1.5 g/L sodium bicarbonate. Gastric adenocarcinoma AGS cells (CRL-1739) were grown as monolayers in Ham F-12 medium containing 1 mM L-glutamine and 1.5 g/L sodium bicarbonate. All media were supplemented with 10% heat-inactivated FBS, 100 IU/mL penicillin and 100 µg/mL streptomycin. Cells were grown in a humidified incubator with 5% CO2 in air at 37 °C. For the antiproliferative assay, cells were plated at a density of 5 × 10^4 cells/mL. Cells were seeded in 96-well plates (100 µL/well). One day after seeding, cells were treated with medium containing the compounds at concentrations ranging from 0 up to 100 µM during 3 days. The compounds were dissolved in DMSO (1% final concentration) and complete medium. Untreated cells (medium containing 1% DMSO) were used as 100% viability controls. […] Each concentration was tested in sextuplicate and experiments were repeated 2 times. Cell viability was determined by means of the MTT reduction assay at the end of the incubation with the products. The results were transformed to percentage of controls and the IC50 value was obtained adjusting the dose-response curve to a sigmoidal model. The software used was OriginPro 8.1 [23].

[2] = tested on: lung cancer (SK-MES-1) cells; assay: Antiproliferative assay (MTT reduction), SK-MES-1 cells; assay type: cell-based, human; settings: for IC50: Homo sapiens, 72 h, SK-MES-1 lung cancer cells, 3 days treatment, MTT, mean ± SD; for antiproliferative activity in words, SK-MES-1: SK-MES-1 cells
Description: as §1, with “Normal lung MRC-5 fibroblasts (CCL-171), SK-MES-1 lung cancer cells (HTB-58) and J82 bladder carcinoma cells (HTB-1) were grown as monolayers in minimum essential Eagle medium (MEM) with Earles’s salts, 2 mM L-glutamine and 1.5 g/L sodium bicarbonate. Gastric adenocarcinoma AGS cells (CRL-1739) were grown as monolayers in Ham F-12 medium containing 1 mM L-glutamine and 1.5 g/L sodium bicarbonate.” left out, “The results were transformed to percentage of controls and the IC50 value was obtained adjusting the dose-response curve to a sigmoidal model.” left out

[3] = tested on: bladder carcinoma (J82) cells; assay: Antiproliferative assay (MTT reduction), J82 cells; assay type: cell-based, human; set-up: key to antiproliferative activity in words, J82: IC50 values > 100 µM were considered inactive; settings: for IC50: Homo sapiens, 72 h, J82 bladder carcinoma cells, 3 days treatment, MTT, mean ± SD
Description: as §1

[4] = tested on: normal lung fibroblasts (MRC-5); assay: Antiproliferative assay (MTT reduction), MRC-5 fibroblasts; assay type: cell-based, human; set-up: key to antiproliferative activity in words, MRC-5: IC50 values > 100 µM were considered inactive; settings: for IC50: Homo sapiens, MRC5, 72 h, MRC-5 normal lung fibroblasts, 3 days treatment, MTT, mean ± SD; for antiproliferative activity in words, MRC-5: MRC-5 fibroblasts
Description: as §1, with “Normal lung MRC-5 fibroblasts (CCL-171), SK-MES-1 lung cancer cells (HTB-58) and J82 bladder carcinoma cells (HTB-1) were grown as monolayers in minimum essential Eagle medium (MEM) with Earles’s salts, 2 mM L-glutamine and 1.5 g/L sodium bicarbonate. Gastric adenocarcinoma AGS cells (CRL-1739) were grown as monolayers in Ham F-12 medium containing 1 mM L-glutamine and 1.5 g/L sodium bicarbonate.” left out, “The results were transformed to percentage of controls and the IC50 value was obtained adjusting the dose-response curve to a sigmoidal model.” left out

[5] = tested on: MCF-7, Hela and liver cancer 7721 cells; set-up: method as in PMID 21345546; settings: range over MCF-7, Hela and liver cancer 7721 cells; read-out: IC50 values (cytotoxicity); cited from earlier work

SMILES	IC50 [1] [µM]	IC50 [2] [µM]	IC50 [3] [µM]	IC50 [4] [µM]	antiproliferative activity in words, SK-MES-1 [2]	antiproliferative activity in words, MRC-5 [4]	antiproliferative activity in words, AGS ([1]; AGS cells)	antiproliferative activity in words, J82 ([3]; J82 cells)	IC50 [5] [µM]
CC(C)c1ccc2c(c1)CCC1[C@](C)(C(=O)OCc3cn(-c4ccccc4)nn3)CCC[C@]21C (some centres unmarked) [Compound 1, 18-((1-Phenyl-1H-1,2,3-triazol-4-yl)methyl)-8,11,13-abietatrienoate]	79.9 ± 4.8	77.3 ± 4.7	46.3 ± 2.3	85.8 ± 4.6	–	–	–	–	–
CC(C)c1ccc2c(c1)CCC1[C@](C)(C(=O)OCCc3cn(-c4ccccc4)nn3)CCC[C@]21C (some centres unmarked) [Compound 2, 18-(2-(1-Phenyl-1H-1,2,3-triazol-4-yl)ethyl)-8,11,13-abietatrienoate]	90.2 ± 5.4	> 100	76.3 ± 5.9	> 100	inactive	inactive	–	–	–
CC(C)c1ccc2c(c1)CCC1[C@](C)(C(=O)OCc3cn(CSc4ccccc4)nn3)CCC[C@]21C (some centres unmarked) [Compound 3, 18-((((1-Phenylthio)methyl)-1H-1,2,3-triazol-4-yl)methyl)-8,11,13-abietatrienoate]	94.4 ± 5.4	> 100	> 100	> 100	inactive	inactive	–	–	–
CC(C)c1ccc2c(c1)CCC1[C@](C)(COC(=O)CCCCc3cn(-c4ccccc4)nn3)CCC[C@]21C (some centres unmarked) [Compound 6, 18-(5-(1-Phenyl-1H-1,2,3-triazol-4-yl)pentanoyloxy)-8,11,13-abietatriene]	> 100	> 100	> 100	> 100	inactive	inactive	inactive	inactive	–
COc1ccc(-n2cc(CCC(=O)OC[C@]3(C)CCC[C@]4(C)c5ccc(C(C)C)cc5CCC34)nn2)cc1 (some centres unmarked) [Compound 11, 18-(3-(1-(4-Anisidyl)-1H-1,2,3-triazol-4-yl)propanoyloxy)-8,11,13-abietatriene]	> 100	> 100	> 100	> 100	–	–	–	–	–
COc1ccc(-n2cc(CCCCC(=O)OC[C@]3(C)CCC[C@]4(C)c5ccc(C(C)C)cc5CCC34)nn2)cc1 (some centres unmarked) [Compound 12, 18-(5-(1-(4-Anisidyl)-1H-1,2,3-triazol-4-yl)pentanoyloxy)-8,11,13-abietatriene]	> 100	> 100	> 100	> 100	–	–	–	–	–
CC(C)c1ccc2c(c1)CCC1[C@](C)(COC(=O)CCc3cn(-c4cccc(Cl)c4)nn3)CCC[C@]21C (some centres unmarked) [Compound 13, 18-(3-(1-(3-Chlorophenyl)-1H-1,2,3-triazol-4-yl)propanoyloxy)-8,11,13-abietatriene]	> 100	> 100	> 100	> 100	–	–	–	–	–
CC(C)c1ccc2c(c1)CCC1[C@](C)(COC(=O)CCCCc3cn(-c4cccc(Cl)c4)nn3)CCC[C@]21C (some centres unmarked) [Compound 14, 18-(5-(1-(3-Chlorophenyl)-1H-1,2,3-triazol-4-yl)pentanoyloxy)-8,11,13-abietatriene]	> 100	> 100	> 100	> 100	–	–	–	–	–
COc1cc([C@@H]2c3cc4c(cc3[C@@H](O[C@@H]3O[C@@H]5CO[C@@H](C)O[C@H]5[C@H](O)[C@H]3O)[C@H]3COC(=O)[C@H]23)OCO4)cc(OC)c1O [Etoposide, reference compound]	0.58 ± 0.02	–	3.49 ± 0.16	–	–	–	–	–	–
CN(C)CCN1C(=O)c2cccc3cc(N)cc(c23)C1=O [amonafide]	–	–	–	–	–	–	–	–	1.68 to 4.27

Further lines, with some results ahead:

IC50 [1] [µM]	IC50 [2] [µM]	IC50 [3] [µM]	SMILES	IC50 [4] [µM]	antiproliferative activity in words, SK-MES-1 [2]	antiproliferative activity in words, MRC-5 [4]	antiproliferative activity in words, AGS ([1]; AGS cells)	antiproliferative activity in words, J82 ([3]; J82 cells)	IC50 [5] [µM]
66 ± 4.4	28.9 ± 2.1	28.1 ± 1.7	CC(C)c1ccc2c(c1)CCC1[C@](C)(C(=O)OCCc3cn(CSc4ccccc4)nn3)CCC[C@]21C (some centres unmarked) [Compound 4, 18-(2-(((1-Phenylthio)methyl)-1H-1,2,3-triazol-4-yl)ethyl)-8,11,13-abietatrienoate]	50.2 ± 3.1	–	–	–	–	–
44.5 ± 1.9	6.1 ± 0.3	83.3 ± 3.3	CC(C)c1ccc2c(c1)CCC1[C@](C)(COC(=O)CCc3cn(-c4ccccc4)nn3)CCC[C@]21C (some centres unmarked) [Compound 5, 18-(3-(1-Phenyl-1H-1,2,3-triazol-4-yl)propanoyloxy)-8,11,13-abietatriene]	17.1 ± 0.6	–	–	–	–	–
36.7 ± 1.5	39.7 ± 2.7	25.6 ± 1.9	CC(C)c1ccc2c(c1)CCC1[C@](C)(COC(=O)CCc3cn(Cc4ccccc4)nn3)CCC[C@]21C (some centres unmarked) [Compound 7, 18-(3-(1-Benzyl-1H-1,2,3-triazol-4-yl)propanoyloxy)-8,11,13-abietatriene]	> 100	–	inactive	–	–	–
35.9 ± 1.7	37 ± 2.6	26.8 ± 1.8	CC(C)c1ccc2c(c1)CCC1[C@](C)(COC(=O)CCCCc3cn(Cc4ccccc4)nn3)CCC[C@]21C (some centres unmarked) [Compound 8, 18-(5-(1-Benzyl-1H-1,2,3-triazol-4-yl)pentanoyloxy)-8,11,13-abietatriene]	> 100	–	inactive	–	–	–
47.7 ± 2.9	43.6 ± 2.9	49.9 ± 2.9	CC(C)c1ccc2c(c1)CCC1[C@](C)(COC(=O)CCc3cn(CSc4ccccc4)nn3)CCC[C@]21C (some centres unmarked) [Compound 9, 18-(3-(((1-Phenylthio)methyl)-1H-1,2,3-triazol-4-yl)propanoyloxy)-8,11,13-abietatriene]	73.3 ± 3.7	–	–	–	–	–
58.9 ± 3.4	42.7 ± 2.9	33.9 ± 1.7	CC(C)c1ccc2c(c1)CCC1[C@](C)(COC(=O)CCCCc3cn(CSc4ccccc4)nn3)CCC[C@]21C (some centres unmarked) [Compound 10]	> 100	–	–	–	–	–
74.9 ± 3.7	84.4 ± 5.1	> 100	Cc1ccc(S(=O)(=O)n2cc(CCC(=O)OC[C@]3(C)CCC[C@]4(C)c5ccc(C(C)C)cc5CCC34)nn2)cc1 (some centres unmarked) [Compound 15, 18-(3-(1-(4-Toluenesulfonyl)-1H-1,2,3-triazol-4-yl)propanoyloxy)-8,11,13-abietatriene]	82.9 ± 4.5	–	–	–	–	–
56.9 ± 3.3	74.2 ± 5.4	75 ± 6.1	Cc1ccc(S(=O)(=O)n2cc(CCCCC(=O)OC[C@]3(C)CCC[C@]4(C)c5ccc(C(C)C)cc5CCC34)nn2)cc1 (some centres unmarked) [Compound 16, 18-(5-(1-(4-Toluenesulfonyl)-1H-1,2,3-triazol-4-yl)pentanoyloxy)-8,11,13-abietatriene]	68.8 ± 4.5	–	–	–	–	–
